Where a name gives a salt, the structure may show the parent alone. Read-outs that look alike come from different tables or passages of the source.
How the values were obtained:
[1] = system: MCT cells
Experimental: Where not otherwise indicated, reagents were purchased from Sigma (Madrid, Spain). A mouse cortical tubule cell line (MCT) was used for the study. Cells were maintained in RPMI 1640 medium (Gibco, Madrid, Spain) supplemented with 10% fetal bovine serum (FBS, Gibco, Madrid, Spain), 500 U/mL penicillin, 50 mg/mL streptomycin (Gibco, Madrid, Spain) and 1 mM L-glutamine. […] During the treatments, cells were photographed under live cell, light microscope (Axiovert 200M, Zeiss; and Nikon Eclipse TS100, Barcelona, Spain) for visual inspection.
MTT assay. Viable cell number was comparatively estimated by incubating cell cultures with 0.5 mg/mL 3-[4,5-dimethylthiazol-2-yl]-2,5-diphrnyl tetrazolium bromide (MTT) for 4h. Then, 10% SDS in 0.01 M HCL was added in 1:1 (vol/vol) and left overnight at 37 °C. Finally, absorbance was measured at 570 nm as an index of viable cell number.

[2] = system: MCT cells; remark: listed apart in the source
Experimental: (§4) Reagents, cells, and protocols. Where not otherwise indicated, reagents were purchased from Sigma (Madrid, Spain). A mouse cortical tubule cell line (MCT) was used for the study. Cells were maintained in RPMI 1640 medium (Gibco, Madrid, Spain) supplemented with 10% fetal bovine serum (FBS, Gibco, Madrid, Spain), 500 U/mL penicillin, 50 mg/mL streptomycin (Gibco, Madrid, Spain) and 1 mM L-glutamine. […] During the treatments, cells were photographed under live cell, light microscope (Axiovert 200M, Zeiss; and Nikon Eclipse TS100, Barcelona, Spain) for visual inspection. At the end, cell extracts were obtained in extraction buffer (25 mM PIPES, pH7; 25 mM KCI; 5 mM EGTA; 0,5% NP-40, and a mixture of protease inhibitors consisting of 1 mM phenylsulfonyl fluoride, 1 µg/mL leupeptine, and 1 µg/mL aprotinin). Protein content was determined with a commercial kit (Bio-Rad, Madrid, Spain) based in the Lowry method.

[3] = system: MCT cells; remark: listed apart in the source
Experimental: (§5) A mouse cortical tubule cell line (MCT) was used for the study. Cells were maintained in RPMI 1640 medium (Gibco, Madrid, Spain) supplemented with 10% fetal bovine serum (FBS, Gibco, Madrid, Spain), 500 U/mL penicillin, 50 mg/mL streptomycin (Gibco, Madrid, Spain) and 1 mM L-glutamine. […] During the treatments, cells were photographed under live cell, light microscope (Axiovert 200M, Zeiss; and Nikon Eclipse TS100, Barcelona, Spain) for visual inspection. At the end, cell extracts were obtained in extraction buffer (25 mM PIPES, pH7; 25 mM KCI; 5 mM EGTA; 0,5% NP-40, and a mixture of protease inhibitors consisting of 1 mM phenylsulfonyl fluoride, 1 µg/mL leupeptine, and 1 µg/mL aprotinin). Protein content was determined with a commercial kit (Bio-Rad, Madrid, Spain) based in the Lowry method.
(§6) Caspase activity. Twenty micrograms of protein from cell extracts were incubated with 100 µL reaction buffer (50 mM HEPES, pH7.4; 100 mM NaCl; 1 mM EDTA; 0.1% 3-[3-(cholamidopropyl)-dimethylammonio]-1-propane sulfonate; 10% sucrose; and 5 mM DTT) containing 100 µM of the fluorogenic caspase substrate rhodamine 110, bis-(N-CBZ-L-aspartyl-L-glutamyl-L-valyl-L-aspartic acidamide (Z-DEVD)2Rh110; Anaspec, Fremont, CA, USA)) at 37 °C for 30 min in a Fluoroskan Ascent FL fluorometer (Thermo, Rockford, IL, USA), and fluorescence intensity was measured every 3 min at 538 nm, upon excitation at 485 nm. Caspase activity was calculated from the slope of the linear relationship between fluorescence intensity and time.

[4] = system: MCT cells; assay: Caspase (DEVDase) activity in cell extracts; format: cell-based, mouse; conditions: cisplatin, 18 h, concentration-dependent
Description: (§1) Reagents, cells, and protocols.
(§2) Caspase activity. […] Western blot.

[5] = system: MCT cells; assay: Internucleosomal DNA fragmentation; format: cell-based, mouse; conditions: cisplatin, 18 h, concentration-dependent
Experimental: as §1
DNA fragmentation. DNA fragmentation was determined with the commercial kit Cell Death Detection Plus (Roche Diagnostics, Barcelona, Spain) in 10 µg of protein from each cell extract.

[6] = system: MCT cells; assay: RT-qPCR analysis of gene expression; format: cell-based, mouse; conditions: 0-30 µM cisplatin, 18 h, normalized with RPS13
Experimental: as §1
RT-qPCR analysis. Total RNA was isolated using Nucleospin RNAII (Macherey-Nagel, Düren, Germany). First-strand cDNA was generated from 1 µg of total RNA using poly-dT as primer with the M-MLV reverse transcriptase (Promega, Barcelona, Spain). Real-time PCR (qPCR) was performed in triplicate. In a total reaction volume of 20 µL containing 1 µL of cDNA, 0.4 µM of each primer and 1x iQSybrGreen Supermix (Bio-Rad), with initial denaturation at 95 °C for 5 min followed by 40 cycles of 30 sec at 95 °C, and 30 sec at 65 °C, and finally, one cycle of 30 sec at 72 °C. Threshold cycle (Ct) values were obtained. The sequences of TCP1-eta used were: sense 5'-[…]-3' (SEQ ID NO: 1); anti-sense 5'-[…]-3' (SEQ ID NO: 2); and RPS13: sense 5'-[…]-3' (SEQ ID NO: 3); anti-sense 5'-[…]-3' (SEQ ID NO: 4). Standard curves were run for each transcript to assure exponential amplification and to rule out non-specific amplification. Changes in the expression level were calculated following normalization with RPS13. The reactions were run on an iQ5 Real-Time PCR detection system (Bio-Rad, Madrid, Spain).

[7] = system: Male Wistar rats; assay: Rat models of AKI: urinary markers by Western blot; format: in vivo
Description: as §2
(§3) Rat models of AKI. Male Wistar rats (220-240 g) were housed under controlled experimental conditions and allowed free access to regular chow and water. […] Rats were allocated in metabolic cages to obtain 24-hour, individual urine samples. Blood was drawn with a needle from the tail vein, and plasma was obtained by centrifugation and, at the end of the treatments, kidneys were perfused with heparinized saline and immediately dissected. Half of the kidney was fixed in paraformaldehyde for histological studies, and the rest was frozen at -80 °C for biochemical analysis.

[8] = system: Male Wistar rats; assay: Rat models of AKI: renal histopathology; format: in vivo; conditions: hematoxylin and eosin, cisplatin 5 mg/kg i.p., gentamicin 150 mg/kg per day i.p. for 6 days
Description: as §3
Renal histopathology. Paraformaldehyde-fixed tissue samples were immersed in paraffin, cut into […] slices and stained with hematoxylin and eosin.

[9] = system: MCT cells; assay: Apoptotic cells / death phenotype by light microscopy; conditions: medium without serum, 18 h, cisplatin 0-30 µM, cycloheximide 50-800 µM
Experimental: as §4

[10] = system: MCT cells; assay: Western blot / 2D proteomic analysis of culture medium and cell extracts; conditions: 18 h, cisplatin 0-30 µM, cycloheximide 50-800 µM
Experimental: as §5, §6

[11] = system: Male Wistar rats; assay: Rat models of AKI: renal function (plasma creatinine); format: in vivo; conditions: cisplatin single i.p. 5 mg/kg, gentamicin i.p. 150 mg/kg per day for 6 days
Experimental: Renal function. Renal function was monitored by means of plasma creatinine and urea and urinary protein concentration, which were determined with commercial colorimetric kits (Quantichrom Creatinine and Quantichrom Urea Assay Kits, BioAssay Systems, Hayward, CA, USA), according to the manufacturer's instructions.

[12] = rats, cisplatin single i.p. 5 mg/kg, gentamicin i.p. 150 mg/kg per day for 6 days, Western blot

C[C@@H]1C[C@@H]([C@H](O)CC2CC(=O)NC(=O)C2)C(=O)[C@@H](C)C1 [Cycloheximide, cycloheximide] was tested, and the cell viability [1] was “reduces cell viability”, the “number of apoptotic cells / apoptotic phenotype” value [2] was “induces apoptosis” and the “TCP1-eta in the culture medium” value [3] was “increases TCP1-eta secretion to the culture medium”. The “executioner caspase 3 (active caspase 3, p19 fragment)” value [3] was “executioner caspase 3 activation”.

In the case of N.N.[Cl][Pt][Cl] [cisplatin], the “caspase (DEVDase) activity” value [4] is reported as “increased”, the “internucleosomal DNA fragmentation” value [5] is reported as “increased” and the TCP1-eta gene expression [6] is reported as “progressive TCP1-eta gene induction with increasing concentrations of the drug”. The “urinary NGAL” value [7, 12] was “significantly increases”, the “urinary TCP1-eta” value [7, 12] was “significantly increases” and the “pattern of renal damage (region affected)” value [8] was “both the cortex and the outer medulla”. The “number of apoptotic cells / apoptotic phenotype” value [9] was “increased the number of apoptotic cells” and the “TCP1-eta in the culture medium” value [10] was “increased with increasing concentrations of cisplatin”.

O=C(O)/C=C\C(=O)O [sodium maleate] was tested, and the “urinary TCP1-eta” value ([7]; normal rats, single i.v. injection of sodium maleate 400 mg/kg) was “TCP1-eta is excreted with the urine”.

gentamicin was tested, and the Plasma creatinine [11] was “significantly increases”, the “urinary NGAL” value [7, 12] was “significantly increases” and the “urinary TCP1-eta” value [7, 12] was “significantly increases”. For the same compound, the “pattern of renal damage (region affected)” value [8] was “mostly the cortex and, to a lesser extent, the medulla”.
